Experimental data reported in patent US9790235B2, “MK2 inhibitors and uses thereof” (Celgene CAR LLC, priority 2014, dated 2017).
Read-outs that look alike come from different tables or passages of the source.

Columns and labels:
[1] = biological target: p38α activated, mitogen-activated protein kinase-activated protein kinase 2 (MAPKAP-K2 or MK2) enzyme (Homo sapiens (Human), UniProt P49137); test: MK2 Omnia continuous-read kinase assay for compound potency; format: biochemical
Summary of the method: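 Activated MK2 (0.4 nM) was run with S/T3-Sox peptide and ATP, each at 10 μM (ATP at apparent KM), and Sox fluorescence was followed every 71 s for 2 h at room temperature. IC50 came from linear initial rates after no-enzyme subtraction, and apparent kinact/KI from kobs of single-exponential fits.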

MK2 [2] = biological target: T1, MK2 (Homo sapiens (Human), UniProt P49137); test: MK2 cellular assay, total and phospho-Hsp27 (Serine 78) by MSD ELISA (Thp1); format: cell-based
Experimental: MK2 Cellular Assay—Detection of Total and Phospho-Hsp27 (Serine 78) by MSD ELISA (Thp1)
Compounds of the invention were assayed in Thp-1 human acute monocytic leukemia cells to measure inhibition of MK2 activity. Thp-1 cells were grown in culture medium containing RPMI/10% FBS (fetal bovine serum)/0.05 mM 2-mercaptoethanol. 72 hours prior to the assay, 8×10^4 cells per well were plated in a 96 well flat bottom plate along with 10 ng/mL phorbol 12-myristate 13-acetate (PMA). Cells were cultured in an incubator at 37° C. until needed for the assay. Cell plate media was replaced with culture media just prior to assay while compound dilutions were being made.
Stock solutions of test compound, 1 mM in DMSO, were prepared. 0.9 μl of test compound was added to 300 μl cell media for a starting concentration of 3000 nM. […] Cell plate media was discarded, followed by addition of 100 μl of the compound containing media. The resulting preparation was incubated at 37° C. for 1 hour.
Test compound-containing cell assay media was removed and the cells were washed once with cell assay media. Cell assay media containing 50 ng/mL LPS (lipopolysaccharide) was added to the each well and incubated for 45 minutes. Following LPS incubation, the cells were washed once with PBS (phosphate-buffered saline) and lysed with 60 μl Cell Extraction Buffer (Invitrogen #FNN0011) plus protease and phosphatase inhibitors. The plate was then stored at −80° C. until further analysis.
The MULTI-SPOT Phospho(Ser78)/Total HSP27 ELISA Assay kit was purchased from Meso Scale […] (MSD; catalog #K15128D). […] The pre-coated MSD plate was blocked with 150 μL/well of 3% BSA in MSD wash buffer. The preparation was placed on a shaker at room temperature for an hour. While the ELISA plate was blocked, the cell assay plate stored at −80° C. was placed on a shaker at 4° C. for 1 hour to thaw.
The blocked MSD plate was washed on a plate washer, tapping out the last bit of wash solution, followed by addition of 30 μl of the lysate from the cell assay plate. The preparation was covered and incubated for 1 hour at room temperature. The lysate was removed, the plate was washed 3 times on a plate washer and the last bit of wash buffer was tapped out and replaced with 25 μl/well detection antibody (anti-total HSP27 conjugated with an electrochemiluminescent compound, MSD SULFO-TAG label, supplied in kit) made in 1% BSA/MSD wash buffer. The plate was incubated for 1 hour at room temperature on a shaker, followed by 3 washes. The last bit of wash buffer was tapped out. 150 μl/well 1×MSD read buffer was added (4× read buffer supplied with kit) and the plate was analyzed on the MSD SECTOR® Imager for analysis. The SECTOR® Imager measures intensity of emitted light to provide a quantitative measure of phosphorylated HSP27 (Ser78) and total HSP27 present in the sample. The relative percent phosphoprotein in a sample is calculated by dividing the Phospho-HSP27 signal intensity over the total HSP27 signal intensity measured in each well.

MK2 [3] = biological target: T1, MK2
Experimental: Aliquots of the resulting mixture (6 μL each) were diluted with 0.2% trifluoroacetic acid (TFA, 10 μL) prior to micro C4 ZipTipping directly onto the MALDI target using sinapinic acid as the desorption matrix (10 mg/ml in 0.1% TFA:acetonitrile 50:50, v/v). The centroid mass of the target protein in the control sample was compared with the centroid mass of the target protein incubated with compound. A shift in the centroid mass of the treated protein compared to the untreated protein was divided by the molecular weight of the compound. This number corresponds to the percentage of modified protein (a measure of the proportion of total target protein covalently bound to the test compound) after one hour incubation.
3 μL of magnetic Ni-NTA beads were added to the 6 μL aliquots of sample, washed, eluted with 0.2% trifluoroacetic acid (TFA, 2 μL), and spotted directly onto the MALDI target using sinapinic acid as the desorption matrix (10 mg/ml in 0.1% TFA:acetonitrile 50:50, v/v). The centroid mass of the target protein in the control sample was compared with the centroid mass of the target protein incubated with compound. A shift in the centroid mass of the treated protein compared to the untreated protein was divided by the molecular weight of the compound. This number corresponds to the percentage of modified protein (a measure of the proportion of total target protein covalently bound to the test compound) after one hour incubation.

[4] = [MK-2]=0.4 nM, [ATP]=10 μM, [ST3-Sox]=10 μM, read-out: MK2 IC50
[5] = percentage of modified protein after 60 minutes at room temperature, 10-fold excess of compound, MALDI (I-1 to I-50), magnetic bead MALDI (I-51 to I-129)
[6] = Thp-1 cells, 1 hour compound, 50 ng/mL LPS 45 minutes, p-HSP27 (Ser78)/total HSP27, read-out: pHSP27 signaling EC50
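Wherever Mass Modification is given: covalent binding read from centroid mass shift of compound-treated versus untreated intact MK2, shift divided by compound molecular weight, giving fraction of total protein bound.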

T1 sequence (P49137 whole entry): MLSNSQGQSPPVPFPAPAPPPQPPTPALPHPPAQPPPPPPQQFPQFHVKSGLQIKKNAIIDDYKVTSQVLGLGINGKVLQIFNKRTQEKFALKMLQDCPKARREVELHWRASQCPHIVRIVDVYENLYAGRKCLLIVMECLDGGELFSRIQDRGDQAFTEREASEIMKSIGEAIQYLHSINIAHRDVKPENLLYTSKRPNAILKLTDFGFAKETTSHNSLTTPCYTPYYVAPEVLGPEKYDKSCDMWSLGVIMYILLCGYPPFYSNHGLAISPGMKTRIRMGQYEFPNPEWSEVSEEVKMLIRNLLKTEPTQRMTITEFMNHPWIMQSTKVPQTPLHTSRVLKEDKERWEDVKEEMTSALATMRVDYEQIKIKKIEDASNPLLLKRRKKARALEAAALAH
p38α activated, mitogen-activated protein kinase-activated protein kinase 2 (MAPKAP-K2 or MK2) enzyme, sequence (P49137 whole entry): as above

Row | Compound | IC50 [1, 4] [nM] | EC50 (MK2 [2]) [nM] | Mass Modification (MK2 [3]; [5]) | EC50 (MK2 [2]; [6]) [nM] | IC50 [1] [nM] | IC50 ([1]; read-out: MK2 IC50) [nM] | Mass Modification (MK2 [3])
1 | C[C@@H]1CNc2c(sc3ccc4nc(Nc5cc(F)nc(OC6CCCN(C)C6)n5)ccc4c23)C(=O)N1 (stereo partly drawn) [I-47, (10R)-3-((6-fluoro-2-((1-methylpiperidin-3-yl)oxy)pyrimidin-4-yl)amino)-10-methyl-9,10,11,12-tetrahydro-8H-[1,4]diazepino[5′,6′:4,5]thieno[3,2-f]quinolin-8-one] | < 100 | 101 to 500 | F (mass modification of 31-69%) |  |  |  | 
2 | CCN1CCN(Cc2cnc(Cl)nc2Oc2ccc3c(ccc4sc5c(c43)NC[C@@H](C)NC5=O)n2)CC1 [I-94, (R)-3-((2-chloro-5-((4-ethylpiperazin-1-yl)methyl)pyrimidin-4-yl)oxy)-10-methyl-9,10,11,12-tetrahydro-8H-[1,4]diazepino[5′,6′:4,5]thieno[3,2-f]quinolin-8-one] | 101 to 500 |  | E (mass modification of ≧70%) | > 1000 |  |  | 
3 | CNC[C@@H]1CNc2c(sc3ccc4nc(Nc5cc(F)ncn5)ccc4c23)C(=O)N1 [I-35] | 101 to 500 |  | F (mass modification of 31-69%) | 501 to 999 |  |  | 
4 | C[C@@H]1CNc2c(sc3ccc4nc(Oc5nc(Cl)ncc5C5=CCN(C)CC5)ccc4c23)C(=O)N1 [I-122] | < 100 |  | E (mass modification of ≧70%) | 101 to 500 |  |  | 
5 | C[C@@H]1CNc2c(sc3ccc4nc(Sc5ccnc(Cl)n5)ccc4c23)C(=O)N1 [I-72, (R)-3-((2-chloropyrimidin-4-yl)thio)-10-methy-9,10,11,12-tetrahydro-8H-[1,4]diazepino[5′,6′:4,5]thieno[3,2-f]quinolin-8-one] | < 100 |  | G (mass modification ≦30%) | > 1000 |  |  | 
6 | C[C@@H]1CNc2c(sc3ccc4nc(Oc5nc(Cl)ncc5CN5C6CCC5COC6)ccc4c23)C(=O)N1 [I-114, (R)-3-((5-((3-oxa-8-azabicyclo[3.2.1]octan-8-yl)methyl)-2-chloropyrimidin-4-yl)oxy)-10-methyl-9,10,11,12-tetrahydro-8H-[1,4]diazepino[5′,6′:4,5]thieno[3,2-f]quinolin-8-one] |  | < 100 | E (mass modification of ≧70%) |  | 101 to 500 |  | 
7 | Cc1nc(Cl)cc(Oc2ccc3c(ccc4sc5c(c43)NC[C@@H](C)NC5=O)n2)n1 [I-58, (R)-3-((6-chloro-2-methylpyrimidin-4-yl)oxy)-10-methyl-9,10,11,12-tetrahydro-8H-[1,4]diazepino[5′,6′:4,5]thieno[3,2-f]quinolin-8-one] | < 100 |  | E (mass modification of ≧70%) | < 100 |  |  | 
8 | C[C@@H]1CNc2c(sc3ccc4nc(Nc5cc(Cl)ncc5C(N)=O)ccc4c23)C(=O)N1 [I-15, (R)-6-chloro-4-((10-methyl-8-oxo-9,10,11,12-tetrahydro-8H-[1,4]diazepino[5′,6′:4,5]thieno[3,2-f]quinolin-3-yl)amino)nicotinamide] | < 100 |  | G (mass modification ≦30%) | > 1000 |  |  | 
9 | C[C@@H]1CNc2c(sc3ccc4nc(Nc5cc(Cl)nc(OC6CCCN(C)C6)n5)ccc4c23)C(=O)N1 (stereo partly drawn) [I-59, (10R)-3-((6-chloro-2-((1-methylpiperidin-3-yl)oxy)pyrimidin-4-yl)amino)-10-methyl-9,10,11,12-tetrahydro-8H-[1,4]diazepino[5′,6′:4,5]thieno[3,2-f]quinolin-8-one] | < 100 |  | E (mass modification of ≧70%) | 501 to 999 |  |  | 
10 | C[C@@H]1CNc2c(sc3ccc4nc(Nc5nc(Cl)nc(N6CCN(C)CC6)n5)ccc4c23)C(=O)N1 [I-10, (R)-3-((4-chloro-6-(4-methylpiperazin-1-yl)-1,3,5-triazin-2-yl)amino)-10-methyl-9,10,11,12-tetrahydro-8H-[1,4]diazepino[5′,6′:4,5]thieno[3,2-f]quinolin-8-one] | < 100 |  | G (mass modification ≦30%) | 101 to 500 |  |  | 
11 | CO[C@@H]1CCCN(Cc2cnc(Cl)nc2Oc2ccc3c(ccc4sc5c(c43)NC[C@@H](C)NC5=O)n2)C1 [I-107, (R)-3-((2-chloro-5-(((R)-3-methoxypiperidin-1-yl)methyl)pyrimidin-4-yl)oxy)-10-methyl-9,10,11,12-tetrahydro-H-[1,4]diazepino[5′,6′:4,5]thieno[3,2-f]quinolin-8-one] | 101 to 500 |  | E (mass modification of ≧70%) | < 100 |  |  | 
12 | C[C@@H]1CNc2c(sc3ccc4nc(Nc5nc(Cl)ncc5C#N)ccc4c23)C(=O)N1 [I-16, (R)-2-chloro-4-((10-methyl-8-oxo-9,10,11,12-tetrahydro-8H-[1,4]diazepino[5′,6′:4,5]thieno[3,2-f]quinolin-3-yl)amino)pyrimidine-5-carbonitrile] | < 100 |  | E (mass modification of ≧70%) | < 100 |  |  | 
13 | COCCN(C)Cc1cnc(Cl)nc1Oc1ccc2c(ccc3sc4c(c32)NC[C@@H](C)NC4=O)n1 [I-90, (R)-3-((2-chloro-5-(((2-methoxyethyl)(methyl)amino)methyl)pyrimidin-4-yl)oxy)-10-methyl-9,10,11,12-tetrahydro-8H-[1,4]diazepino[5′,6′:4,5]thieno[3,2-f]quinolin-8-one] | 101 to 500 |  | E (mass modification of ≧70%) | < 100 |  |  | 
14 | COC(=O)c1nc(Cl)cc(Nc2ccc3c(ccc4sc5c(c43)NC[C@@H](C)NC5=O)n2)n1 [I-70, (R)-methyl 4-chloro-6-((10-methyl-8-oxo-9,10,11,12-tetrahydro-8H-[1,4]diazepino[5′,6′:4,5]thieno[3,2-f]quinolin-3-yl)amino)pyrimidine-2-carboxylate] |  |  |  | < 100 |  | < 100 | E (key: E: mass modification of ≧70%; F: mass modification of 31-69%; G: mass modification ≦30%)
15 | C[C@@H]1CNc2c(sc3ccc4nc(Oc5nc(Cl)nc(N6CCCCC6)n5)ccc4c23)C(=O)N1 [I-64, (R)-3-((4-chloro-6-(piperidin-1-yl)-1,3,5-triazin-2-yl)oxy)-10-methyl-9,10,11,12-tetrahydro-8H-[1,4]diazepino[5′,6′:4,5]thieno[3,2-f]quinolin-8-one] | < 100 |  | E (mass modification of ≧70%) | > 1000 |  |  | 
16 | C[C@@H]1CNc2c(sc3ccc4nc(Oc5nc(Cl)ncc5CN5CCC(OCCF)CC5)ccc4c23)C(=O)N1 [I-131, (R)-3-((2-chloro-5-((4-(2-fluoroethoxy)piperidin-1-yl)methyl)pyrimidin-4-yl)oxy)-10-methyl-9,10,11,12-tetrahydro-8H-[1,4]diazepino[5′,6′:4,5]thieno[3,2-f]quinolin-8-one] | < 100 |  | E (mass modification of ≧70%) | < 100 |  |  | 
17 | C[C@@H]1CNc2c(sc3ccc4nc(Oc5nc(Cl)ncc5C5=CCOCC5)ccc4c23)C(=O)N1 [I-124, (R)-3-((2-chloro-5-(3,6-dihydro-2H-pyran-4-yl)pyrimidin-4-yl)oxy)-10-methyl-9,10,11,12-tetrahydro-8H-[1,4]diazepino[5′,6′:4,5]thieno[3,2-f]quinolin-8-one] | < 100 |  | E (mass modification of ≧70%) | 101 to 500 |  |  | 
